Test results from ChEMBL document CHEMBL4699598, “Discovery of Novel Substituted N-(4-Amino-2-chlorophenyl)-5-chloro-2-hydroxybenzamide Analogues as Potent Human Adenovirus Inhibitors” (J Med Chem, 2020).
pIC50: −log10 of the molar value. Calls of active or inactive are those of the source. No cut-off for these calls is given here.

Key:
Human adenovirus 5 [1] = assay: Antiviral activity against wild-type Human adenovirus 5 infected in human A549 cells assessed as inhibition of viral DNA replication by measuring number of viral DNA copies at 12.7 uM after 24 hrs by RT-qPCR analysis (reference value: 100 +/- 0.16 %); assay type: functional; parameters: scale not given: the % may be the effect or the level left
Human adenovirus 5 [2] = assay: Antiviral activity against GFP-fused Human adenovirus 5 infected in 293beta5 cells assessed as inhibition of plaque formation incubated for 7 days by GFP reporter gene assay; assay type: functional, organism-based; conditions: Human mastadenovirus C, HEK293, 168 h
[3] = Cytotoxicity against human A549 cells assessed as reduction in cell viability incubated for 48 hrs by alamarBlue assay; assay type: cell-based
[4] = Selectivity index, ratio of CC50 for cytotoxicity against human A549 cells assessed as reduction in cell viability incubated for 48 hrs by alamarBlue assay to IC50 for antiviral activity against Human adenovirus 5 infected in 293beta5 cells assessed as inhibition of plaque formation incubated for 7 days by GFP reporter gene assay; assay type: toxicity, cell-based; conditions: read-out: Ratio CC50/IC50
Human adenovirus 5 [5] = assay: Antiviral activity against Human adenovirus 5 infected in 293beta5 cells assessed as inhibition of plaque formation at 10 uM incubated for 7 days by GFP reporter gene assay relative to control; assay type: functional; conditions: Human mastadenovirus C, HEK293, 168 h, time 7 day
Human adenovirus 5 [6] = assay: Antiviral activity against WT-Human adenovirus 5 infected in A549 cells assessed as fold reduction in virus yield at 10 fold of IC50 after 48 hrs endpoint dilution method; assay type: functional
Human adenovirus 5 [7] = assay: Antiviral activity against wild-type Human adenovirus 5 infected in human A549 cells assessed as inhibition of virus entry incubated for 48 hrs by fluorescence assay; assay type: functional, organism-based; conditions: Human mastadenovirus C, A549, 48 h
Human adenovirus 5 [8] = assay: Antiviral activity against wild-type Human adenovirus 5 infected in human A549 cells assessed as inhibition of viral entry by measuring nuclear associated viral genome level at 10 fold IC50 incubated for 45 mins by RT-PCR analysis (reference value: 100 +/- 1.07 %); assay type: functional; parameters: scale not given: the % may be the effect or the level left; conditions: 0.75 h
Human adenovirus 5 [9] = assay: Antiviral activity against Human adenovirus 5 infected in 293beta5 cells assessed as inhibition of virus infection at 10 fold IC50 measured after 5 mins by GFP reporter gene assay relative to control; assay type: functional, HEK293
Human betaherpesvirus 5 [10] = assay: Antiviral activity against human cytomegalovirus infected in HFF cells assessed as inhibition of viral replication by measuring number of viral DNA copies at 12.7 uM incubated for 72 hrs by RT-PCR analysis (reference value: 100 +/- 25.56 %); assay type: functional; parameters: scale not given: the % may be the effect or the level left
Human adenovirus 5 [11] = assay: Antiviral activity against Human adenovirus 5 infected in 293beta5 cells assessed as inhibition of virus infection at 10 times IC50 measured after 10 to 20 mins by GFP reporter gene assay relative to control; assay type: functional, organism-based; conditions: HEK293, time min 10-20
Human adenovirus 5 [12] = assay: Antiviral activity against wild-type Human adenovirus 5 infected in human A549 cells assessed as inhibition of viral DNA replication by measuring number of viral DNA copies at 9.3 uM after 24 hrs by RT-qPCR analysis (reference value: 100 +/- 0.16 %); assay type: functional; parameters: scale not given: the % may be the effect or the level left
Cytomegalovirus = assay: Antiviral activity against human cytomegalovirus infected in HFF cells assessed as decrease in number of viral DNA copies at 9.3 uM incubated for 72 hrs by RT-PCR analysis (reference value: 100 +/- 25.56 %); assay type: functional; parameters: scale not given: the % may be the effect or the level left
Human adenovirus 5 [13] = assay: Antiviral activity against wild-type Human adenovirus 5 infected in human A549 cells assessed as inhibition of viral DNA replication by measuring number of viral DNA copies at […] after 24 hrs by RT-qPCR analysis (reference value: 100 +/- 0.16 %); assay type: functional; parameters: scale not given: the % may be the effect or the level left; conditions: dose 11.1 µM
Human adenovirus 5 [14] = assay: Antiviral activity against Human adenovirus 5 infected in 293beta5 cells assessed as inhibition of virus infection at 10 fold IC50 measured after 60 mins by GFP reporter gene assay relative to control; assay type: functional, HEK293; conditions: 1 h
Human betaherpesvirus 5 [15] = assay: Antiviral activity against human cytomegalovirus infected in HFF cells assessed as inhibition of viral replication by measuring number of viral DNA copies at […] incubated for 72 hrs by RT-PCR analysis (reference value: 100 +/- 25.56 %); assay type: functional; parameters: scale not given: the % may be the effect or the level left; conditions: dose 11.1 µM
Human adenovirus 5 [16] = assay: Antiviral activity against Human adenovirus 5 infected in 293beta5 cells assessed as inhibition of virus infection at 10 fold of IC50 measured at 0 min by GFP reporter gene assay relative to control; assay type: functional, HEK293
Human adenovirus 5 [17] = assay: Antiviral activity against wild-type Human adenovirus 5 infected in human A549 cells assessed as inhibition of viral DNA replication by measuring number of viral DNA copies at 9 uM after 24 hrs by RT-qPCR analysis (reference value: 100 +/- 0.16 %); assay type: functional; parameters: scale not given: the % may be the effect or the level left
Human betaherpesvirus 5 [18] = assay: Antiviral activity against human cytomegalovirus infected in HFF cells assessed as inhibition of viral replication by measuring number of viral DNA copies at 9 uM incubated for 72 hrs by RT-PCR analysis (reference value: 100 +/- 25.56 %); assay type: functional; parameters: scale not given: the % may be the effect or the level left
Human adenovirus 5 [19] = assay: Antiviral activity against wild-type Human adenovirus 5 infected in human A549 cells assessed as inhibition of viral DNA replication by measuring number of viral DNA copies at 2.7 uM after 24 hrs by RT-qPCR analysis (reference value: 100 +/- 0.16 %); assay type: functional; parameters: scale not given: the % may be the effect or the level left
Human betaherpesvirus 5 [20] = assay: Antiviral activity against human cytomegalovirus infected in HFF cells assessed as inhibition of viral replication by measuring number of viral DNA copies at 2.7 uM incubated for 72 hrs by RT-PCR analysis (reference value: 100 +/- 25.56 %); assay type: functional; parameters: scale not given: the % may be the effect or the level left
Human adenovirus 5 [21] = assay: Antiviral activity against wild-type Human adenovirus 5 infected in human A549 cells assessed as inhibition of viral DNA replication by measuring number of viral DNA copies at 12 uM after 24 hrs by RT-qPCR analysis (reference value: 100 +/- 0.16 %); assay type: functional; parameters: scale not given: the % may be the effect or the level left
Human betaherpesvirus 5 [22] = assay: Antiviral activity against human cytomegalovirus infected in HFF cells assessed as inhibition of viral replication by measuring number of viral DNA copies at 12 uM incubated for 72 hrs by RT-PCR analysis (reference value: 100 +/- 25.56 %); assay type: functional; parameters: scale not given: the % may be the effect or the level left
Human adenovirus 5 [23] = assay: Antiviral activity against wild-type Human adenovirus 5 infected in human A549 cells assessed as inhibition of viral DNA replication by measuring number of viral DNA copies at 7.8 uM after 24 hrs by RT-qPCR analysis (reference value: 100 +/- 0.16 %); assay type: functional; parameters: scale not given: the % may be the effect or the level left
Human betaherpesvirus 5 [24] = assay: Antiviral activity against human cytomegalovirus infected in HFF cells assessed as inhibition of viral replication by measuring number of viral DNA copies at 7.8 uM incubated for 72 hrs by RT-PCR analysis (reference value: 100 +/- 25.56 %); assay type: functional; parameters: scale not given: the % may be the effect or the level left

Row | SMILES | pIC50 (Human adenovirus 5 [2]) | pIC50 (Human adenovirus 5 [7]) | CC50 at 48 h [3] | selectivity ratio at 48 h [4] | inhibition at 10 µM (Human adenovirus 5 [5]) | fold change (FC) (Human adenovirus 5 [6]) | Activity (Human adenovirus 5 [8]) | inhibition (INH) (Human adenovirus 5 [16]) | further results
1 | CC(C)(Cc1ccccc1)ON(c1ccc(NC(=O)c2cc(Cl)ccc2O)c(Cl)c1)C(C)(C)Cc1ccccc1 | 5.90 | 4.47 | 165 µM | 130 | 100% | 21.5 | 95.87% | – | Activity (Human adenovirus 5 [1]): 2.37%; inhibition (INH) (Human adenovirus 5 [9]): <50%; Activity (Human betaherpesvirus 5 [10]): 9.15%
2 | CC(C)(C)OC(=O)N1CCC(CNc2ccc(NC(=O)c3cc(Cl)ccc3O)c(Cl)c2)CC1 | 6.03 | > 5.50 | 92 µM | 102 | – | 232 | 59.54% | – | inhibition (Human adenovirus 5 [11]): inactive; Activity (Human adenovirus 5 [12]): 2.49%; Activity (Cytomegalovirus): 15.58%
3 | O=C(Nc1ccc(NCc2ccc(O)cc2)cc1Cl)c1cc(Cl)ccc1O | 5.95 | 4.60 | 116 µM | 104 | – | 17.4 | 11.56% | – | Activity (Human adenovirus 5 [13]): 83.72%; inhibition (INH) (Human adenovirus 5 [14]): >=50%; Activity (Human betaherpesvirus 5 [15]): 15.71%

More lines, main results first:

Row | pIC50 (Human adenovirus 5 [2]) | pIC50 (Human adenovirus 5 [7]) | SMILES | CC50 at 48 h [3] | selectivity ratio at 48 h [4] | inhibition at 10 µM (Human adenovirus 5 [5]) | fold change (FC) (Human adenovirus 5 [6]) | Activity (Human adenovirus 5 [8]) | inhibition (INH) (Human adenovirus 5 [16]) | further results
4 | 6.05 | – | CC(C)(CCO)Nc1ccc(NC(=O)c2cc(Cl)ccc2O)c(Cl)c1 | 170 µM | 188 | – | 15.7 | 99.97% | <50% | Activity (Human adenovirus 5 [17]): 65.04%; Activity (Human betaherpesvirus 5 [18]): 14.35%
5 | 6.57 | 4.82 | CC1(Nc2ccc(NC(=O)c3cc(Cl)ccc3O)c(Cl)c2)CCCC1 | 157 µM | 581 | 100% | 52.6 | 53.7% | – | Activity (Human adenovirus 5 [19]): 20.21%; inhibition (INH) (Human adenovirus 5 [9]): <50%; Activity (Human betaherpesvirus 5 [20]): 91.25%
6 | 5.92 | 4.51 | CC(CCO)Nc1ccc(NC(=O)c2cc(Cl)ccc2O)c(Cl)c1 (stereo not given) | 200 µM | 167 | – | 9.3 | 98.96% | <50% | Activity (Human adenovirus 5 [21]): 80.94%; Activity (Human betaherpesvirus 5 [22]): 22.47%
7 | 6.11 | < 4.30 | O=C(Nc1ccc(NCc2ccc(O)nc2)cc1Cl)c1cc(Cl)ccc1O | 98.5 µM | 126 | 100% | 26.6 | 13.6% | <50% | Activity (Human adenovirus 5 [23]): 53.62%; Activity (Human betaherpesvirus 5 [24]): 18.18%
